Like-named read-outs stand apart in the source and are kept apart here.
Assays:
Type in all cases: cell-based
human M1 receptor = biological target: T1, human M1 receptor (Homo sapiens, UniProt P11229); experiment: In vitro functional assay of muscarinic acetylcholine receptor activity (aequorin calcium flux, antagonist mode vs EC80 acetylcholine), M1
T1 sequence (P11229 1-460): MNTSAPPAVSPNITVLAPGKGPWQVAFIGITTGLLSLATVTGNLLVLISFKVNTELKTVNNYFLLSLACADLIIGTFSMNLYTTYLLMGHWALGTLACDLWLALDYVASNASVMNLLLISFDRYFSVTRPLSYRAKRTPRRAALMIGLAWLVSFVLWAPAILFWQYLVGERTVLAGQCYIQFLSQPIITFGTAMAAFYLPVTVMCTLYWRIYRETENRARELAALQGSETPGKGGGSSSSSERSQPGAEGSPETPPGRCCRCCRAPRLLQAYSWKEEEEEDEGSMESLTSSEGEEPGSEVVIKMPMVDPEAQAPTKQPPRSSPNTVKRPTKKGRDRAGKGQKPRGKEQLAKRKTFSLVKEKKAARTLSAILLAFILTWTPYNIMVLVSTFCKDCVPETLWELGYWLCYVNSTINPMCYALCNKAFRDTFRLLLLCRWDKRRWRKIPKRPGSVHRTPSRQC
Experimental: (§1) CHO-K1 cells stably expressing human M1 receptor with Aequorin (Perkin Elmer) were grown in F12 media, 10% FBS with 0.4 mg/mL geneticin and […]. Cells were grown to confluence and frozen down to be assayed at a later date. On the day of the experiment cells were thawed in a 37° C. water bath, resuspended in DMEM/HAM's F12 with HEPES (Invitrogen)+0.1% protease-free BSA (assay buffer), and spun down to remove freezing media. After centrifugation, supernatant was removed and 12 mL of assay buffer was added. Coelenterazine h (Promega) was added to the cells at a final concentration of 5 uM and incubated for 4 hours at room temperature in the dark. Compound master plate-96 deep well (Corning) were formatted in a 8-point DRC in assay buffer with 0.2% DMSO at a starting concentration of 60 uM (2×). After 4 hours of incubation, cells were plated at a concentration of 5×10^5 cells/well in 96 well white-walled, tissue culture-treated, clear-bottom plates (VWR). Compounds were added to the daughter plate, and cells plus compound were incubated at room temperature for 30 minutes in the dark.
(§2) Calcium flux was measured using the FlexStation 3 (Molecular Devices). To measure the antagonist dose-response, the EC80 of Acetylcholine was injected to the daughter plate using the automated compound transfer function of the Flex Station, and the increase in luminescence was measured over time. Antagonist activity was analyzed as a concentration dependent decrease in the EC80 acetylcholine response. Dose response curves were generated using Prism (GraphPad Software). The IC50 of the compounds was calculated from the dose response curve.

M2 = biological target: T2, M2 (Homo sapiens, UniProt P08172); experiment: In vitro functional assay of muscarinic acetylcholine receptor activity, M2
T2 sequence (P08172 1-466): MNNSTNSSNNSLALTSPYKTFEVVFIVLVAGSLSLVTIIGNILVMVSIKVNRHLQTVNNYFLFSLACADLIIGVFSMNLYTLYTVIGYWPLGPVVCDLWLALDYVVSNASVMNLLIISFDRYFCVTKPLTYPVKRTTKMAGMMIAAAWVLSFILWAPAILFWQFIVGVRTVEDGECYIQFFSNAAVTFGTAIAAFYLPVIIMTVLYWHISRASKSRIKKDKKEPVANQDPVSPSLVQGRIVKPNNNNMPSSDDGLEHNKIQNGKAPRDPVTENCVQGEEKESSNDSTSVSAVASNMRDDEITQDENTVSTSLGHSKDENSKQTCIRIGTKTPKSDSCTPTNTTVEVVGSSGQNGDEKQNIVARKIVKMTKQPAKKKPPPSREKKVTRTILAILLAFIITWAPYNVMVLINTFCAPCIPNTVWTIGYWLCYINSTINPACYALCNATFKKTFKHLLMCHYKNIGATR
Experimental: [The procedure below names another target; the source lists this target under the same test.] as §1, §2

M3 = M3 (Homo sapiens, UniProt P20309); experiment: In vitro functional assay of muscarinic acetylcholine receptor activity, M3; settings: antagonist IC50 at M3; read-out: M3 IC50
Sequence of M3 (P20309 whole entry): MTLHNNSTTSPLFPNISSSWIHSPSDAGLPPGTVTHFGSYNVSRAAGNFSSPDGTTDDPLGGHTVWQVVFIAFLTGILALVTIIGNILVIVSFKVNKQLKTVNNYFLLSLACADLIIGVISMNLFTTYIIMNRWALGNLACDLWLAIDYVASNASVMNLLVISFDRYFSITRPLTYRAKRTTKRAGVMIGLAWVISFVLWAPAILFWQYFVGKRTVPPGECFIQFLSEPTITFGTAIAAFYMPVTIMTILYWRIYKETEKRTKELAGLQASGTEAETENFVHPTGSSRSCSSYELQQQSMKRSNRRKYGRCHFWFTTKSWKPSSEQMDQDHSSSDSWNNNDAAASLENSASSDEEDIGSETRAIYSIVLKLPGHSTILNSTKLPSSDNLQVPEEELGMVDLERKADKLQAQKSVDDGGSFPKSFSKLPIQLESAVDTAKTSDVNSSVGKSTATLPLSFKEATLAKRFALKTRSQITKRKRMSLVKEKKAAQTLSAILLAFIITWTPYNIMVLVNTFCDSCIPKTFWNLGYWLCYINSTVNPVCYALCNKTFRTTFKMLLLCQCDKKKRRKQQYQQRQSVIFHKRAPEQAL
Experimental: [The procedure below names another target; the source lists this target under the same test.] as §1, §2

[1] = CHO-K1 cells stably expressing human M1 receptor with Aequorin, decrease in EC80 acetylcholine response, read-out: M1 IC50
[2] = antagonist IC50 at M2, read-out: M2 IC50

Compound | IC50 (human M1 receptor; [1]) [µM] | IC50 (M2; [2]) [µM] | IC50 (M3) [µM] | IC50 (human M1 receptor) [µM] | IC50 (M2) [µM]
Cc1cc(F)cnc1N1CC(C)N(C(=O)CCS(=O)(=O)c2cccc3ncsc23)C(C)C1 (stereo not drawn) [Example 135, 3-(1,3-benzothiazole-7-sulfonyl)-1-[4-(5-fluoro-3-methylpyridin-2-yl)-2,6-dimethylpiperazin-1-yl]propan-1-one] | < 0.1 | 0.1 to 1 | 1 to 10 | – | –
N#Cc1ccc(N2C3CCC2CN(C(=O)CCOCc2cccc4nccnc24)C3)nc1 [Example 37, 6-(3-{3-[(quinoxalin-5-yl)methoxy]propanoyl}-3,8-diazabicyclo[3.2.1]octan-8-yl)pyridine-3-carbonitrile] | – | 1 to 10 | > 10 | < 0.1 | –
N#Cc1ccc(N2C3CCC2CN(C(=O)C2CC(Cc4cccc5ncsc45)C2)C3)nc1 (stereo not drawn) [Example 31, 6-(3-{3-[(1,3-benzothiazol-7-yl)methyl]cyclobutanecarbonyl}-3,8-diazabicyclo[3.2.1]octan-8-yl)pyridine-3-carbonitrile] | – | 1 to 10 | 1 to 10 | < 0.1 | –
O=C(CCNCc1cccc2nccn12)N1CC2CCC(C1)N2c1ccncc1F [Example 14, 1-[8-(3-fluoropyridin-4-yl)-3,8-diazabicyclo[3.2.1]octan-3-yl]-3-[([imidazo[1,2-a]pyridin-5-yl]methyl)amino]propan-1-one] | – | > 10 | > 10 | 0.1 to 1 | –
C[C@H]1CN(c2ncc(F)cc2C#N)CCN1C(=O)CCCc1cccc2ncccc12 [Example 90, (S)-5-fluoro-2-(3-methyl-4-(4-(quinolin-5-yl)butanoyl)piperazin-1-yl)nicotinonitrile] | > 10 | 1 to 10 | > 10 | – | –
O=C(N1CC(Oc2cccc3ncccc23)C1)N1C[C@H]2CC[C@@H](C1)N2c1ccc(F)cn1 [Example 50, ((1R,5S)-8-(5-fluoropyridin-2-yl)-3,8-diazabicyclo[3.2.1]octan-3-yl)(3-(quinolin-5-yloxy)azetidin-1-yl)methanone] | 1 to 10 | 1 to 10 | > 10 | – | –
N#Cc1ccc(N2C3CCC2CN(C(=O)CCOCc2cccc4c2OCO4)C3)nc1 [Example 187, 6-(3-{3-[(2H-1,3-benzodioxol-4-yl)methoxy]propanoyl}-3,8-diazabicyclo[3.2.1]octan-8-yl)pyridine-3-carbonitrile] | – | > 10 | > 10 | 0.1 to 1 | –
COc1cnc2cccc(S(=O)(=O)CCCC(=O)N3CCN(c4ncc(F)cc4C)C[C@@H]3C)c2c1 [Example 17, (S)-1-(4-(5-fluoro-3-methylpyridin-2-yl)-2-methylpiperazin-1-yl)-4-((3-methoxyquinolin-5-yl)sulfonyl)butan-1-one] | 0.1 to 1 | 0.1 to 1 | 1 to 10 | – | –
Nc1cc(N2CCN(C(=O)CCS(=O)(=O)c3cccc4ncsc34)CC2)c(Cl)cn1 [Example 137, 1-[4-(2-amino-5-chloropyridin-4-yl)piperazin-1-yl]-3-(1,3-benzothiazole-7-sulfonyl)propan-1-one] | 1 to 10 | > 10 | > 10 | – | –
O=C(CCS(=O)(=O)c1cccc2ncsc12)N1CCN(c2c(Cl)cncc2Cl)CC1 [Example 105, 3-(benzo[d]thiazol-7-ylsulfonyl)-1-(4-(3,5-dichloropyridin-4-yl)piperazin-1-yl)propan-1-one] | 1 to 10 | 1 to 10 | 1 to 10 | – | –
CC1CN(C(=O)CCCc2cccc3ncccc23)CCN1c1ccncc1 (stereo not drawn) [Example 60, 1-(3-methyl-4-(pyridin-4-yl)piperazin-1-yl)-4-(quinolin-5-yl)butan-1-one] | < 0.1 | 0.1 to 1 | 1 to 10 | – | –
Cc1ccncc1N1CCN(C(=O)CCCc2cccc3ncccc23)[C@H](C)C1 [Example 78, (R)-1-(2-methyl-4-(4-methylpyridin-3-yl)piperazin-1-yl)-4-(quinolin-5-yl)butan-1-one] | < 0.1 | 1 to 10 | 1 to 10 | – | –
Cc1cncc(Cl)c1N1CCN(C(=O)CCS(=O)(=O)c2cccc3ncsc23)[C@@H](C)C1 [Example 108, (S)-3-(benzo[d]thiazol-7-ylsulfonyl)-1-(4-(3-chloro-5-methylpyridin-4-yl)-2-methylpiperazin-1-yl)propan-1-one] | 0.1 to 1 | > 10 | 1 to 10 | – | –
N#Cc1ccc(N2C3CCC2CN(C(=O)CCN(Cc2cccc4ncnn24)C2CC2)C3)nc1 [Example 164, 6-(3-{3-[cyclopropyl({[1,2,4]triazolo[1,5-a]pyridin-5-yl}methyl)amino]propanoyl}-3,8-diazabicyclo[3.2.1]octan-8-yl)pyridine-3-carbonitrile] | – | 1 to 10 | 1 to 10 | < 0.1 | –
N#Cc1ccc(N2C3CCC2CN(C(=O)C(F)(F)CNCc2cccc4ncsc24)C3)nc1 [Example 158, 6-[3-(3-{[(1,3-benzothiazol-7-yl)methyl]amino}-2,2-difluoropropanoyl)-3,8-diazabicyclo[3.2.1]octan-8-yl]pyridine-3-carbonitrile] | – | – | 1 to 10 | 0.1 to 1 | 0.1 to 1
N#Cc1ccc(C2=CC3CCC2CN3C(=O)CCS(=O)(=O)c2cccc3ncsc23)nc1 (stereo not drawn) [Example 27, 6-{2-[3-(1,3-benzothiazole-7-sulfonyl)propanoyl]-2-azabicyclo[2.2.2]oct-5-en-5-yl}pyridine-3-carbonitrile] | < 0.1 | 0.1 to 1 | 1 to 10 | – | –
O=C(COCc1cccc2ncccc12)N1C[C@H]2CC[C@@H](C1)N2c1ccc(F)cn1 [Example 1, 1-((1R,5S)-8-(5-fluoropyridin-2-yl)-3,8-diazabicyclo[3.2.1]octan-3-yl)-2-(quinolin-5-ylmethoxy)ethan-1-one] | – | 1 to 10 | > 10 | < 0.1 | –
C[C@H]1CN(c2ccc(C#N)cn2)CCN1C(=O)CCS(=O)(=O)c1cccc2ncsc12 [Example 120, 6-[(3S)-4-[3-(1,3-benzothiazole-7-sulfonyl)propanoyl]-3-methylpiperazin-1-yl]pyridine-3-carbonitrile] | 0.1 to 1 | 1 to 10 | 1 to 10 | – | –
Cc1nc2cccc(S(=O)(=O)CCC(=O)N3CCN(c4ccc(C(F)(F)F)cn4)CC3)c2o1 [Example 109, 3-((2-methylbenzo[d]oxazol-7-yl)sulfonyl)-1-(4-(5-(trifluoromethyl)pyridin-2-yl)piperazin-1-yl)propan-1-one] | 1 to 10 | > 10 | > 10 | – | –
O=C(COCc1cccc2cnccc12)N1C[C@H]2CC[C@@H](C1)N2c1ccc(F)cn1 [Example 47, 1-((1R,5S)-8-(5-fluoropyridin-2-yl)-3,8-diazabicyclo[3.2.1]octan-3-yl)-2-(isoquinolin-5-ylmethoxy)ethan-1-one] | 1 to 10 | 1 to 10 | > 10 | – | –
Cc1cc(F)cnc1N1[C@@H]2CC[C@H]1CN(C(=O)CCCc1cccc3ncccc13)C2 [Example 52, 1-((1R,5S)-8-(5-fluoro-3-methylpyridin-2-yl)-3,8-diazabicyclo[3.2.1]octan-3-yl)-4-(quinolin-5-yl)butan-1-one] | – | – | 1 to 10 | 0.1 to 1 | 0.1 to 1
Cc1cc(C(F)(F)F)ncc1N1CCN(C(=O)CCS(=O)(=O)c2cccc3ncsc23)[C@@H](C)C1 [Example 153, 3-(1,3-benzothiazole-7-sulfonyl)-1-[(2S)-2-methyl-4-[4-methyl-6-(trifluoromethyl)pyridin-3-yl]piperazin-1-yl]propan-1-one] | < 0.1 | 0.1 to 1 | 0.1 to 1 | – | –
